US20260317299A1, “PIKFYVE PROTEIN KINASE DEGRADATION AGENT AND USE THEREOF” (Shanghai Institute of Organic Chemistry, Chinese Academy of …, priority 2023, published 2026)

Molecular target: T1, PIKfyve (Homo sapiens, UniProt Q9Y2I7)
T1 construct: endogenous in cells; host or cells: VCaP
Test: Degradation of PIKfyve proteins in VCaP tumor cells (24 h, Western blot)
Format: cell-based
Conditions: 37° C., compared with DMSO control, WB, read-out: DC50 (concentration that achieves 50% degradation activity)
Method in brief: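 VCaP cells (5×10^6 cells/ml) treated with a range of compound concentrations at 37° C for 24 h, then lysed in SDS buffer. PIKfyve level measured by Western blot with GAPDH as loading control and ECL detection. DC50 is the concentration giving 50% degradation relative to DMSO control.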

T1 sequence (Q9Y2I7 whole entry): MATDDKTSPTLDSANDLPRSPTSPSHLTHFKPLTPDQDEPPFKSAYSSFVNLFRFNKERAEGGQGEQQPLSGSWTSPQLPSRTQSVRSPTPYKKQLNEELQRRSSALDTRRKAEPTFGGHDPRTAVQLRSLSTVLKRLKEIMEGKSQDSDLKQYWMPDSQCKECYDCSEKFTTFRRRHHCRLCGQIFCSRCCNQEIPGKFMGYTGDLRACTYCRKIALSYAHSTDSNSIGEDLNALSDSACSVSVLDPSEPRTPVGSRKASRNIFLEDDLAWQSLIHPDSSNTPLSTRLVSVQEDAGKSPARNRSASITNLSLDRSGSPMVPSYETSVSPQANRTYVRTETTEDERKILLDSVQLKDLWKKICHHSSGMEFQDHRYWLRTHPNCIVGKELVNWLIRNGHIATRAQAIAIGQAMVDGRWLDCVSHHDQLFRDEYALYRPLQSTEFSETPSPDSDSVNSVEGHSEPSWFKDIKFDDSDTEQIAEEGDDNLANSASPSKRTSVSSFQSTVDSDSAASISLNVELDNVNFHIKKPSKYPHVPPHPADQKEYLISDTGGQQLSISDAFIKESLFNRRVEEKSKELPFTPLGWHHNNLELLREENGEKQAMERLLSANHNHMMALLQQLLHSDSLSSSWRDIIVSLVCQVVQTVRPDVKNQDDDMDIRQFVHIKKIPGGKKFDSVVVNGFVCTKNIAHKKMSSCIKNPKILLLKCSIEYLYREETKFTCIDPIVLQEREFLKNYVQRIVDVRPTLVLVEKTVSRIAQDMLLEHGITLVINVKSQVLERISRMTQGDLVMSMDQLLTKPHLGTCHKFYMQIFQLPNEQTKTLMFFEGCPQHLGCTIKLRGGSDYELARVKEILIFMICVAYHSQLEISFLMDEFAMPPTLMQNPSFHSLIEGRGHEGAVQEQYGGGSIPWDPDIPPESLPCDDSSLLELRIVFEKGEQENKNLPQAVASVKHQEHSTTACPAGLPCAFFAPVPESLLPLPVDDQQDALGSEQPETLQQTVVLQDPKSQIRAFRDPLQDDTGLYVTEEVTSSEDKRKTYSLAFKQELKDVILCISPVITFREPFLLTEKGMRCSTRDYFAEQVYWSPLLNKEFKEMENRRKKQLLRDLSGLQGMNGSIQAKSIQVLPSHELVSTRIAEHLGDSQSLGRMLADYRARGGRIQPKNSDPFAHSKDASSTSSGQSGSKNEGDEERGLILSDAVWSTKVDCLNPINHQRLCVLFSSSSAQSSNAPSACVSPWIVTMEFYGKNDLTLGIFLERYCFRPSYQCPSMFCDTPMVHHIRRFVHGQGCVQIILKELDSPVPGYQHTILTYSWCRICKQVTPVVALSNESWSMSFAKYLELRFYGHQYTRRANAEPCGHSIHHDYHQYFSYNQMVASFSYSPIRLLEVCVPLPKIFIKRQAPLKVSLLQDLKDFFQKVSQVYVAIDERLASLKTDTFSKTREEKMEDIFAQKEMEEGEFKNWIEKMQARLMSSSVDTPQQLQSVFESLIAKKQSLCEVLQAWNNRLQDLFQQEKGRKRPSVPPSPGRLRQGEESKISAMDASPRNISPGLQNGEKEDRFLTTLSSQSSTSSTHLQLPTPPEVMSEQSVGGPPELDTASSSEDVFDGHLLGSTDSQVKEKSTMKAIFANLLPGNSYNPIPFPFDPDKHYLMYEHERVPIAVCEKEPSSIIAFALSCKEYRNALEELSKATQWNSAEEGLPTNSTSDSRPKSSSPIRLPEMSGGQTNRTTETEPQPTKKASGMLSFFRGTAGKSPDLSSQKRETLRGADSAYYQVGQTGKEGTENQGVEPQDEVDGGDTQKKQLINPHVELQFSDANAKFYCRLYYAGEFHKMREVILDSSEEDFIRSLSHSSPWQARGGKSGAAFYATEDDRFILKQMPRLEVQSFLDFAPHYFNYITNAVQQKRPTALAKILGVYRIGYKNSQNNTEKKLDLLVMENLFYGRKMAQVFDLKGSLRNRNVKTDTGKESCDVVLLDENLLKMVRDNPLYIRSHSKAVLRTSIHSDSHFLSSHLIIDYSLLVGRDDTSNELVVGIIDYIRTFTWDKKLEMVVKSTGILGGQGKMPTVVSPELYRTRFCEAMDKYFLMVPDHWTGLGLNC

Compound	DC50 [µM]
Cc1cccc(-c2ccn(-c3cc(N4CCOCC4)nc(OCCc4ccc(C#CC5CCN(c6cc7c(cc6F)C(=O)N(C6CCC(=O)NC6=O)C7=O)CC5)cc4)n3)n2)c1 (stereo not shown) [Example 90, 2-(2,6-Dioxopiperidin-3-yl)-5-fluoro-6-(4-((4-(2-((4-morpholino-6-(3-(m-tolyl)-1H-pyrazol-1-yl)pyrimidin-2-yl)oxy)ethyl)phenyl)ethynyl)piperidin-1-yl)isoindoline-1,3-dione]	0.1 to 10
Cc1cccc(-c2ccn(-c3cc(N4CCOCC4)nc(OCCc4ccc(N5CCN(CC6CCN(c7cc8c(cc7F)C(=O)N(C7CCC(=O)NC7=O)C8=O)CC6)CC5)cc4)n3)n2)c1 (stereo not shown) [Example 91, 2-(2,6-Dioxopiperidin-3-yl)-5-fluoro-6-(4-((4-(4-(2-((4-morpholino-6-(3-(m-tolyl)-1H-pyrazol-1-yl)pyrimidin-2-yl)oxy)ethyl)phenyl)piperazin-1-yl)methyl)piperidin-1-yl)isoindoline-1,3-dione]	0.1 to 10
Cc1cccc(-c2ccn(-c3cc(N4CCOCC4)nc(OC4CCN(c5ccc(NC(=O)NC6CCN(c7cc8c(cc7F)C(=O)N(C7CCC(=O)NC7=O)C8=O)CC6)cc5)CC4)n3)n2)c1 (stereo not shown) [Example 92, 1-(1-(2-(2,6-Dioxopiperidin-3-yl)-6-fluoro-1,3-dioxoisoindolin-5-yl)piperidin-4-yl)-3-(4-(4-((4-morpholino-6-(3-(m-tolyl)-1H-pyrazol-1-yl)pyrimidin-2-yl)oxy)piperidin-1-yl)phenyl)urea]	0.1 to 10
Cc1cccc(-c2ccn(-c3cc(N4CCOCC4)nc(OC4CCN(c5ccc(NC(=O)NC6CN(c7cc8c(cc7F)C(=O)N(C7CCC(=O)NC7=O)C8=O)C6)cc5)CC4)n3)n2)c1 (stereo not shown) [Example 93, 1-(1-(2-(2,6-Dioxopiperidin-3-yl)-6-fluoro-1,3-dioxoisoindolin-5-yl)azetidin-3-yl)-3-(4-(4-((4-morpholino-6-(3-(m-tolyl)-1H-pyrazol-1-yl)pyrimidin-2-yl)oxy)piperidin-1-yl)phenyl)urea]	0.1 to 10
Cc1cccc(-c2ccn(-c3cc(N4CCOCC4)nc(Oc4ccc(N5CCC(N6CCN(c7cc8c(cc7F)C(=O)N(C7CCC(=O)NC7=O)C8=O)CC6)CC5)cc4)n3)n2)c1 (stereo not shown) [Example 94, 2-(2,6-Dioxopiperidin-3-yl)-5-fluoro-6-(4-(1-(4-((4-morpholino-6-(3-(m-tolyl)-1H-pyrazol-1-yl)pyrimidin-2-yl)oxy)phenyl)piperidin-4-yl)piperazin-1-yl)isoindoline-1,3-dione]	0.1 to 10
Cc1cccc(-c2ccn(-c3cc(N4CCOCC4)nc(OC4CCN(c5ccc(CN6CCN(c7cc8c(cc7F)C(=O)N(C7CCC(=O)NC7=O)C8=O)CC6)cc5)CC4)n3)n2)c1 (stereo not shown) [Example 95, 2-(2,6-Dioxopiperidin-3-yl)-5-fluoro-6-(4-(4-(4-((4-morpholino-6-(3-(m-tolyl)-1H-pyrazol-1-yl)pyrimidin-2-yl)oxy)piperidin-1-yl)benzyl)piperazin-1-yl)isoindoline-1,3-dione]	0.1 to 10
Cc1cccc(-c2ccn(-c3cc(N4CCOCC4)nc(Oc4ccc(N5CCN(CC6CCN(c7cc8c(cc7F)C(=O)N(C7CCC(=O)NC7=O)C8=O)CC6)CC5)cc4)n3)n2)c1 (stereo not shown) [Example 96, 2-(2,6-Dioxopiperidin-3-yl)-5-fluoro-6-(4-((4-(4-((4-morpholino-6-(3-(m-tolyl)-1H-pyrazol-1-yl)pyrimidin-2-yl)oxy)phenyl)piperazin-1-yl)methyl)piperidin-1-yl)isoindoline-1,3-dione]	0.1 to 10
